Laboratory results as given in patent US8637268B2, “Determination of von Willebrand Factor cleavage by ADAMTS13” (Puget Sound Blood Center, priority 2010, dated 2014).
Each block holds one compound with its values, some of them ahead of it.

Columns and labels:
Assay type in all cases: biochemical
VWF = biological target: T1, VWF (Homo sapiens, UniProt P04275); assay: Cleavage of VWF by endogenous ADAMTS13 in citrated pooled normal plasma, multimer pattern on agarose gel
T1 construct: Cleavage of VWF by ADAMTS13 in citrated pooled normal plasma; tissue Precision BioLogic; host or cells: citrated pooled normal plasma, diluted 10-fold
Description: Cleavage of VWF by ADAMTS13 in citrated pooled normal plasma was examined by incubating 10-fold diluted plasma at 37° C. for various times. Monoclonal ADAMTS13 antibody or control antibody (final concentration: 20 μg/ml) was added to an aliquot of the diluted plasma. ADAMTS13 cleavage was stopped at indicated times with EDTA.
(§1) The VWF multimer pattern was evaluated by 1.5% agarose gel electrophoresis followed by Western blotting with a HRP-conjugated polyclonal VWF antibody (Dako, Inc., Carpinteria, Calif.) previously described (Chen et al., J Clin Invest, Submitted (2010)).

[1] = biological target: T2, short A2 (Met1473-Gly1674) (Homo sapiens, UniProt P04275); assay: ADAMTS13 cleavage of recombinant VWF fragment short A2 (SDS-PAGE, western blotting); details: 1.5 M urea or 1.5 mg/ml ristocetin, 37° C., 5 hr (FIG. 4)
T2 construct: short A2 (Met1473-Gly1674); made in house; host or cells: HEK293 Tet-On cells
Description: (§2) Recombinant ADAMTS13 (Ala75-Thr1427) and VWF fragments A1A2A3 (Asp1261-Ile1878), long A2 (Asp1459-Gly1674), and short A2 (Met1473-Gly1674) were expressed as fusion proteins with the pNBioSec vector (Mize et al., Protein Expr Purif, 57(2):280-289 (2008)) in HEK293 Tet-On cells as previously described (Chen et al., Blood, 115(3):706-712 (2010)). In this expression system, recombinant proteins were secreted with dual tags: an N-terminal biotin-tag and a C-terminal protein C epitope tag. Serum-free-cell-culture medium containing the secreted recombinant proteins was concentrated 10-fold by centrifugation over an Ultra-10K filter and desalted over Sephadex G25.
(§3) Plasma VWF was purified from cryoprecipitate as described previously (Chen et al., Blood, 115(3):706-712 (2010)). Cleavage of recombinant VWF fragments by ADAMTS13 was carried out at 37° C. for 5 hours with or without modulators. The reactions were stopped by EDTA (final concentration 10 mM). Cleavage products were analyzed by electrophoresis in 4-15% gradient polyacrylamide gels (Bio-Rad Laboratories, Hercules, Calif.) after reduction. […]
(§4) Cleavage of recombinant VWF fragments (1 μg/ml) by ADAMTS13 (0.15 μg/ml) was carried out at 37° C. for 5 hours in the presence of either 1.5 M urea, or 1.5 mg/ml ristocetin. […] Cleavage products were analyzed by electrophoresis in 4-15% gradient polyacrylamide gels after reduction. […]

A1A2A3 (Asp1261-Ile1878) = biological target: T3, A1A2A3 (Asp1261-Ile1878) (Homo sapiens, UniProt P04275); assay: ADAMTS13 cleavage of recombinant VWF fragment A1A2A3 (SDS-PAGE, western blotting); details: for ADAMTS13 cleavage of A1A2A3: 37° C., 5 hr (FIG. 2)
T3 construct: VWF fragments A1A2A3 (Asp1261-Ile1878); made in house; host or cells: HEK293 Tet-On cells
Description: as §2
(§5) Plasma VWF was purified from cryoprecipitate as described previously (Chen et al., Blood, 115(3):706-712 (2010)). Cleavage of recombinant VWF fragments by ADAMTS13 was carried out at 37° C. for 5 hours with or without modulators. The reactions were stopped by EDTA (final concentration 10 mM). Cleavage products were analyzed by electrophoresis in 4-15% gradient polyacrylamide gels (Bio-Rad Laboratories, Hercules, Calif.) after reduction. Cleavage products were transferred onto nitrocellulose membranes, blocked with 1% albumin in Tris-buffered saline with 0.05% Tween-20, probed with HRP-conjugated streptavidin (Thermal Scientific, Rockford, Ill.), and visualized with the Immobilon Western HRP substrate (Millipore).
(§6) Cleavage of recombinant VWF fragments (1 μg/ml) by ADAMTS13 (0.15 μg/ml) was carried out at 37° C. for 5 hours in the presence of either 1.5 M urea, or 1.5 mg/ml ristocetin. The reactions were stopped by EDTA. Cleavage products were analyzed by electrophoresis in 4-15% gradient polyacrylamide gels after reduction. Cleavage products were transferred onto nitrocellulose membranes, blocked with 1% albumin in Tris-buffered saline with 0.05% Tween-20, probed with HRP-conjugated streptavidin, and visualized with the Immobilon Western HRP substrate.

Multimeric VWF = biological target: T4, Multimeric VWF (Homo sapiens, UniProt P04275); assay: Detection of methionine oxidation in VWF by mass spectrometry (HOCl-generating system MPO plus H2O2)
T4 construct: purified, multimeric VWF from plasma; from tissue
Description: Multimeric VWF was incubated with an HOC1-generating system containing 25 nM MPO plus H2O2 at various concentrations in PBS (pH 7.4) at 37° C. for 1 hr in the presence or absence of 1.0 mg/ml ristocetin. The oxidation reaction was stopped by the addition of excess free methionine. The oxidized protein was digested with trypsin and the peptides analyzed by nano liquid chromatography-electrospray ionization-tandem mass spectrometry (nanoLC-ESI-MS/MS).

[2] = biological target: T5, long A2 (Asp1459-Gly1674) (Homo sapiens, UniProt P04275, D1472H); assay: ADAMTS13 cleavage of recombinant VWF fragment long A2 (SDS-PAGE, western blotting); details: in the presence of ristocetin, 37° C., 5 hr (FIG. 3)
T5 construct: long A2 (Asp1459-Gly1674); made in house; host or cells: HEK293 Tet-On cells
Description: as §2, §3, §4

[3] = biological target: T6, purified multimeric plasma VWF (Homo sapiens, UniProt P04275); assay: ADAMTS13 cleavage of purified multimeric plasma VWF, multimer pattern on agarose gel; details: 0.75 and 1.0 mg/ml ristocetin, 37° C., under stasis (FIG. 1A)
T6 construct: Plasma VWF was purified from cryoprecipitate as described previously; from tissue; host or cells: plasma cryoprecipitate (VWF); HEK293 Tet-On cells (ADAMTS13)
Description: Cleavage of purified VWF (2 μg/ml) by recombinant ADAMTS13 (0.4 μg/ml) was performed at 37° C. in the absence or presence of urea or ristocetin. The reactions were stopped at the indicated times with EDTA (final concentration 10 mM).
as §1

A1A2 fragment = assay: ADAMTS13 cleavage of recombinant VWF fragment A1A2 (SDS-PAGE, western blotting)
Description: as §5, §6

[4] = 1.0 mg/ml ristocetin versus buffer, 25 nM MPO plus H2O2, 1 hr (FIG. 6A)

T4 sequence (P04275 764-2813 limits assumed): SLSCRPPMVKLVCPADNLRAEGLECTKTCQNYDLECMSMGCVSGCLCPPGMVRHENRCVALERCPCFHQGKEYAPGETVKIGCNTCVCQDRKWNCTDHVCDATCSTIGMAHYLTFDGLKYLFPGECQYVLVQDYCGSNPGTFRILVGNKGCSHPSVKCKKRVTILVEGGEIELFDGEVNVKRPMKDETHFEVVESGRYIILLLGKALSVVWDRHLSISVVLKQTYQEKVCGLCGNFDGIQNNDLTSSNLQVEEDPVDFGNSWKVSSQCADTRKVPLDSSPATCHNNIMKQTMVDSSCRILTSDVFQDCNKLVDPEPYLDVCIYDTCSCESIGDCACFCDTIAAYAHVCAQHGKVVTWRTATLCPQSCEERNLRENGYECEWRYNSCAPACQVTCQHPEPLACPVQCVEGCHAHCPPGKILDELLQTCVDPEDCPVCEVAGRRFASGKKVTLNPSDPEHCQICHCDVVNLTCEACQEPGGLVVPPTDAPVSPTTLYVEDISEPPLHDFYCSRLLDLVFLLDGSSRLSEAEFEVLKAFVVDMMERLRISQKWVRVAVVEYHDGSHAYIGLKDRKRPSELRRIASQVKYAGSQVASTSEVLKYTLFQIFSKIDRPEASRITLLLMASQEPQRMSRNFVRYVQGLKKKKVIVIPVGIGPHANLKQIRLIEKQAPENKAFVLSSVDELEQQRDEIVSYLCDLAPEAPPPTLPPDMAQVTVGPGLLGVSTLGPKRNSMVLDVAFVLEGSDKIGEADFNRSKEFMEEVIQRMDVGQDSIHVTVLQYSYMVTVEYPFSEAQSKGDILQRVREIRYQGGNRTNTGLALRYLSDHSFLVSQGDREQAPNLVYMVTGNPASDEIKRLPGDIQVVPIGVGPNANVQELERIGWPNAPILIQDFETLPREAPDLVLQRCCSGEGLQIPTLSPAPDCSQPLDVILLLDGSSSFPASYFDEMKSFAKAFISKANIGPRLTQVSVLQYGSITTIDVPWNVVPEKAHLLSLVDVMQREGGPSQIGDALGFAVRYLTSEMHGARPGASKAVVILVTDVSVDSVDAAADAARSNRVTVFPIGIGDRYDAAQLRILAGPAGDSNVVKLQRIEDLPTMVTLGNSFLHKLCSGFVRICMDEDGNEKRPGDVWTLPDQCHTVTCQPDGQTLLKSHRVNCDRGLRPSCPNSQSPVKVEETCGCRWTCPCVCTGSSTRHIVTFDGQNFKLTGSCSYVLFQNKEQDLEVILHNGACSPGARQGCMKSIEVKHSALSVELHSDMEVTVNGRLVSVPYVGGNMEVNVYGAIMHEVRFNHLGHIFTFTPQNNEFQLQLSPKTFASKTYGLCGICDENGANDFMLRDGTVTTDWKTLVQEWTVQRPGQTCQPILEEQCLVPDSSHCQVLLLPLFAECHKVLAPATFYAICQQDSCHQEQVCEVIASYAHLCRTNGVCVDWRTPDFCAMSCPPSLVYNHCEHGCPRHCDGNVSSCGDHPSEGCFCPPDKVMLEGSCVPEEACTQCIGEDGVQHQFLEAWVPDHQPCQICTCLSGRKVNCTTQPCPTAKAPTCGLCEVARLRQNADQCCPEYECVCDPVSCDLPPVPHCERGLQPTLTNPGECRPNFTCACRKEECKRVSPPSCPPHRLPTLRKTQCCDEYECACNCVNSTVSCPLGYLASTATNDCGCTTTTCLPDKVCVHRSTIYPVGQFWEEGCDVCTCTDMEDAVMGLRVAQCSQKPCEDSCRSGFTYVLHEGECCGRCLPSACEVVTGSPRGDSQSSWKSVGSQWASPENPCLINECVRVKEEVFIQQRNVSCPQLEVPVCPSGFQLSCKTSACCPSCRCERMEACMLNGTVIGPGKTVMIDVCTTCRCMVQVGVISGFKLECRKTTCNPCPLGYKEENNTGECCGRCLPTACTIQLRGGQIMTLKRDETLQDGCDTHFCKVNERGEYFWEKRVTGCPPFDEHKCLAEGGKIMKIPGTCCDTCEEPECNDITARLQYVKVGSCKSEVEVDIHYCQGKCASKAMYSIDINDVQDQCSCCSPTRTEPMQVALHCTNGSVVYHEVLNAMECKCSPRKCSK
T3 sequence (P04275 1261-1878, one chain of several): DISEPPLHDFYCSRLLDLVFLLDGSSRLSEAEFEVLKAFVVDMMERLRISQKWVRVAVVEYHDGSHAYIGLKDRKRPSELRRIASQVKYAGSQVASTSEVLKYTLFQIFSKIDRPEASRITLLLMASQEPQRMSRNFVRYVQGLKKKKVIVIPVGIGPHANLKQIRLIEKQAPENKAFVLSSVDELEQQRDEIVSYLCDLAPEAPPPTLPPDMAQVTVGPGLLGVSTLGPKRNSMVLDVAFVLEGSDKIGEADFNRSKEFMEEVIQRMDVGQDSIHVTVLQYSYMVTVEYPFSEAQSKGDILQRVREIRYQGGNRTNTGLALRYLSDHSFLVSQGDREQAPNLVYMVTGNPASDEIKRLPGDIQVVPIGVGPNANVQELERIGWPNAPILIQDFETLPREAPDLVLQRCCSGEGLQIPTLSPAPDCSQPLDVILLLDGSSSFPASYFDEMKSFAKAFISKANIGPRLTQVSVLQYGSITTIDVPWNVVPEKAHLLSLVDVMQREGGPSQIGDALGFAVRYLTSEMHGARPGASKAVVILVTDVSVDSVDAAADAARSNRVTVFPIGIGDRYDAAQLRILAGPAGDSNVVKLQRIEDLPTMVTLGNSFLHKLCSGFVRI
T1 sequence (P04275 764-2813 limits assumed): as the sequence (P04275 764-2813 limits assumed) above
Sequence of A1A2 fragment (P04275 1261-1674 D1472H limits assumed): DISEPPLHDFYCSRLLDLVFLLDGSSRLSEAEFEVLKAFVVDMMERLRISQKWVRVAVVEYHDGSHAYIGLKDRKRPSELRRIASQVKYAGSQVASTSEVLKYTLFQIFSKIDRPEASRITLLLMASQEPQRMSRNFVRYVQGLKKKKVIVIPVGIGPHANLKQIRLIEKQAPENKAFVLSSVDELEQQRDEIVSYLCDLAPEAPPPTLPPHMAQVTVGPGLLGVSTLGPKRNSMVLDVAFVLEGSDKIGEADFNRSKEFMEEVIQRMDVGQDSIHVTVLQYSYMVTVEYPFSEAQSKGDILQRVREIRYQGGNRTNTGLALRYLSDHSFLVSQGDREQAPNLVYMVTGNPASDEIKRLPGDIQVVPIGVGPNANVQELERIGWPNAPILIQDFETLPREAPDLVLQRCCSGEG
T2 sequence (P04275 1473-1674): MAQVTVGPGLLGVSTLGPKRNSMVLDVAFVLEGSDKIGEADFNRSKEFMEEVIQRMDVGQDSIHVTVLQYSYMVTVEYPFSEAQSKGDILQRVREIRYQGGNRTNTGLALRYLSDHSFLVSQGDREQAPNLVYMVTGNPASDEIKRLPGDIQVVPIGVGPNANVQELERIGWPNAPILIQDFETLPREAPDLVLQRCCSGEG
T6 sequence (P04275 764-2813 limits assumed): as the sequence (P04275 764-2813 limits assumed) above
T5 sequence (P04275 1459-1674 D1472H): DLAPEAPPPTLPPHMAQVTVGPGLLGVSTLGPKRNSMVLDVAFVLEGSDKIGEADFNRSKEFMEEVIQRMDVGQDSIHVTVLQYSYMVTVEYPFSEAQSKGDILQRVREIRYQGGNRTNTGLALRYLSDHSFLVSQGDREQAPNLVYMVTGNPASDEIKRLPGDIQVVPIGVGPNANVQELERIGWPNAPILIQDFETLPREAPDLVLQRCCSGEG

effect on proteolysis of VWF (VWF; antibody 20 μg/ml, EDTA 10 mM per methods): inhibited
Compound: O=C(O)CN(CCN(CC(=O)O)CC(=O)O)CC(=O)O [EDTA]

ADAMTS13 cleavage of short A2 (lacking Asp1459-His1472) [1]: cleaved it normally
Compound: NC(N)=O [urea]

Compound: CN[C@H](CC(C)C)C(=O)N[C@H]1C(=O)N[C@@H](CC(N)=O)C(=O)N[C@H]2C(=O)N[C@H]3C(=O)N[C@H](C(=O)N[C@H](C(=O)O)c4cc(O)cc(O)c4-c4cc3ccc4O)[C@H](O)c3ccc(c(Cl)c3)Oc3cc2cc(c3O[C@@H]2O[C@H](CO)[C@@H](O)[C@H](O)[C@H]2O[C@H]2C[C@](C)(N)[C@H](O)[C@H](C)O2)Oc2ccc(cc2Cl)[C@H]1O [vancomycin]
ADAMTS13 cleavage of A1A2A3 (A1A2A3 (Asp1261-Ile1878)): not mimicked

effect on ability of endogenous ADAMTS13 to cleave VWF in diluted plasma (VWF; 1.0 mg/ml ristocetin, 10-fold diluted plasma, 37° C., compared with 1.5 M urea (FIG. 1B)): enhanced
oxidation of Met1521 (methionine sulfoxide) in the A2 domain (Multimeric VWF; [4]): more oxidized
oxidation of Met1606 (methionine sulfoxide) in the A2 domain (Multimeric VWF; [4]): more oxidized
extent of methionine oxidation in the A1 domain (Multimeric VWF; ristocetin versus buffer, 25 nM MPO and 50 μM H2O2 (FIG. 6B)): much less than in the A2 domain
ADAMTS13 cleavage of long A2 fragment [2]: able to cleave
effect on ability of recombinant ADAMTS13 to cleave purified multimeric plasma VWF [3]: accelerated
ADAMTS13 cleavage of short A2 (lacking Asp1459-His1472) [1]: unable to cleave
ADAMTS13 cleavage of A1A2A3 (A1A2A3 (Asp1261-Ile1878)): induced ADAMTS13 to cleave
minimum ristocetin concentration producing maximum proteolysis (A1A2A3 (Asp1261-Ile1878); A1A2A3, 37° C., 5 hr, increasing concentrations (FIG. 2B)): approximately 0.8 mg/ml
Compound: ristocetin
efficiency of enhancing ADAMTS13 cleavage, A1A2 fragment versus long A2 domain (A1A2 fragment; FIG. 3): more efficiently in the A1A2 fragment
ADAMTS13 cleavage of A1A2 fragment (A1A2 fragment; in the presence of ristocetin, 37° C., 5 hr (FIG. 3)): able to cleave
